Test results published in patent publication US20040220266A1, “Composition and method for enhancing the bioavailability of calcium and magnesium in dietary supplements and food additives” (priority 2002, published 2004).

Assays:
[1] = oral dietary supplement; cited from earlier work
[2] = saturated aqueous solution, 20° C.; cited from earlier work
[3] = Storage stability of the powders; format: physicochemical; settings: shelf life
[4] = Solubility in water / saturated aqueous solution
Excerpt: The term “soluble” as used herein means capable of being dissolved, going into a liquid state from a solid state.

| Compound | bioavailability / absorption of calcium (in words) [1] | further results |
| --- | --- | --- |
| O=C([O-])[O-].[Ca+2] [Calcium carbonate] | relatively poor | – |
| O.O.O.O.O=C([O-])CC(O)(CC(=O)[O-])C(=O)[O-].O=C([O-])CC(O)(CC(=O)[O-])C(=O)[O-].[Ca+2].[Ca+2].[Ca+2] [Calcium citrate tetrahydrate] | better absorbed than the carbonate or phosphates of calcium | – |
| CC(O)C(=O)[O-].CC(O)C(=O)[O-].O.O.O.O.O.[Ca+2] (stereo not shown) [calcium lactate pentahydrate, 2-hydroxypropanoic acid calcium salt pentahydrate] | good | – |
| O.O.O=P([O-])([O-])O.[Ca+2] [dibasic calcium phosphate dihydrate] | poor | – |
| O=P([O-])([O-])[O-].O=P([O-])([O-])[O-].[Ca+2].[Ca+2].[Ca+2] [tribasic calcium phosphate] | poor | – |
| d-gluconic acid calcium salt [Calcium gluconate] | – | pH of saturated solution [2]: 6-7 |
| magnesium 3-hydroxy-3-methylbutyrate [MgHMB] | – | stability of the powder (in words) [3]: stable powders with long shelf lives; concentration of saturated aqueous solution ([4]; 20° C.): 32 % by weight; solubility over pH range (in words) ([4]; broad range of pH values): highly soluble; pH of aqueous solution (in words) ([4]; pure salt dissolved in water): nearly neutral or slightly alkaline |
